The record followed here is patent US12304909B2, “Compounds and their use in therapy” (IMPERIAL COLLEGE INNOVATIONS LIMITED, priority 2018, dated 2025).

The test system of this data set is MDA MB 231 cells. Briefly: In vivo study in mice, MDA MB 231 tumour growth. Further details: species or system Athymic Nude female mice. The settings on record: 25 mg/kg twice a day by oral gavage, 10 days. The method, then: The effect of Example 1 on tumor growth rate in mice was also investigated.
5×10^6 MDA MB 231 cells (obtained from Professor Eric Aboagye, Hammersmith Hospital; cell type: triple negative breast cancer) were resuspended in PBS, and 50 μl of cells/PBS was mixed with 50 μl of Matrigel to provide a total volume of 100 μL containing 50% Matrigel. The suspension was injected into the right flank in 16 Athymic Nude female mice. Mice were five to six weeks old and obtained from Charles Rivers Laboratories. All of the experiments were carried out under London Home Office license authority and London Home Office Ethics Committee guidelines. When the tumour mass reached 50 mm3, the animals were randomized (8 per group) and treated for 10 days with PBS solution (control group) or 25 mg/kg of Example 1 suspended in PBS twice a day by oral gavage. Tumor growth rates were analyzed by caliper measurements every day after the start of the treatment period with Example 1 (“NMTi”) or the control (“PBS”). Tumor volume was calculated according to the formula: […]. Weight of the mice was also measured every day after the start of the treatment period with Example 1 (“NMTi”) or the control (“PBS”). Mice were euthanised when the tumor size exceeded 15 mm in diameter in any direction.

Turning to `Cc1c(CCOc2cc(Cl)ccc2-c2ccc3ncc(CCN)n3c2)c(C(=O)N(C)C)nn1C` [Example Compound 1, 4-(2-{2-[3-(2-aminoethyl)imidazo[1,2-a]pyridin-6-yl]-5-chlorophenoxy}ethyl)-N,N,1,5-tetramethyl-1H-pyrazole-3-carboxamide], the “weight change in the mice” value was “No weight change”. In addition, the tumour growth rate entry (vs PBS control) is given as “reduced”.
